Measurements as given in US20230035892A1, “METHODS AND COMPOSITIONS FOR TREATING CANCER” (Flagship Pioneering Innovations V, Inc., priority 2019, published 2023).

Columns and labels:
Assay type in all cases: cell-based
[1] = system: sgGrk2-expressing PAXF1657 cells; assay: Colony formation assay in sgGrk2-expressing cells (target specificity)
Procedure: (§1) To assess the target specificity of the GRK2 small molecule antagonist of Formula III-26, sgGRK2-expressing cells were treated with the compound of Formula III-26. If GRK2 knockout is complete and the compound of Formula III-26 inhibits only GRK2, the addition of the compound of Formula III-26 should not induce any additional growth defect compared to sgRNA KO alone. […] This is potentially due to the lower GRK2 knockout efficiency that can be achieved in PAXF1657 compared to Miapaca2, as shown in Table 16.

[2] = system: sgGrk2-expressing Miapaca2 cells; assay: as above; details: Miapaca
Procedure: as §1

PAXF1997 = assay: Proliferation, percent viability normalized to DMSO
Source text: The GRK2 small molecule antagonist of Formula III-26 was used to evaluate the effect of a small molecule GRK2 antagonist on the proliferation of pancreatic cancer cell lines Miapaca2, Panc1, BXPC3, PAXF1657, PAXF1997 and Capan1. Values represent percent viability normalized to DMSO.

[3] = PAXF1657, 1 μM, sgGRK2-2 (SEQ ID NO: 3)
[4] = PAXF1657, 1 μM, sgGRK2-3 (SEQ ID NO: 4)
[5] = PAXF1657, 3 μM, sgGRK2-2 (SEQ ID NO: 3)
[6] = PAXF1657, 3 μM, sgGRK2-3 (SEQ ID NO: 4)

Cn1c(CNc2cccc(C(=O)NCc3ccccc3C(F)(F)F)c2)nnc1-c1ccncc1 [Compound of Formula III-26]
Difference between rel +dox and −dox signal [1, 3]: 0.45 | Rel +dox [1, 3]: 0.44 | Rel −dox [1, 3]: 0.89 | Difference between rel +dox and −dox signal [1, 4]: 0.37 | Rel +dox [1, 4]: 0.40 | Rel −dox [1, 4]: 0.78 | Difference between rel +dox and −dox signal ([1]; PAXF1657, 1 μM, sgGRK2-pooled): 0.29 | Rel +dox ([1]; PAXF1657, 1 μM, sgGRK2-pooled): 0.49 | Rel −dox ([1]; PAXF1657, 1 μM, sgGRK2-pooled): 0.78 | Difference between rel +dox and −dox signal ([1]; PAXF1657, 1 μM, sgNTC): −0.04 | Rel +dox ([1]; PAXF1657, 1 μM, sgNTC): 0.78 | Rel −dox ([1]; PAXF1657, 1 μM, sgNTC): 0.73 | Difference between rel +dox and −dox signal [1, 5]: 0.26 | Rel +dox [1, 5]: 0.41 | Rel −dox [1, 5]: 0.67 | Difference between rel +dox and −dox signal [1, 6]: 0.32 | Rel +dox [1, 6]: 0.22 | Rel −dox [1, 6]: 0.55 | Difference between rel +dox and −dox signal ([1]; PAXF1657, 3 μM, sgGRK2-pooled): 0.11 | Rel +dox ([1]; PAXF1657, 3 μM, sgGRK2-pooled): 0.48 | Rel −dox ([1]; PAXF1657, 3 μM, sgGRK2-pooled): 0.59 | Difference between rel +dox and −dox signal ([1]; PAXF1657, 3 μM, sgNTC): 0.01 | Rel +dox ([1]; PAXF1657, 3 μM, sgNTC): 0.56 | Rel −dox ([1]; PAXF1657, 3 μM, sgNTC): 0.57 | Difference between rel +dox and −dox signal ([2]; 1 μM, sgGRK2-pooled): 0.00 | Rel +dox ([2]; 1 μM, sgGRK2-pooled): 0.76 | Rel −dox ([2]; 1 μM, sgGRK2-pooled): 0.75 | Difference between rel +dox and −dox signal ([2]; 1 μM, sgNTC): 0.05 | Rel +dox ([2]; 1 μM, sgNTC): 0.77 | Rel −dox ([2]; 1 μM, sgNTC): 0.81 | Difference between rel +dox and −dox signal ([2]; 3 μM, sgGRK2-pooled): 0.04 | Rel +dox ([2]; 3 μM, sgGRK2-pooled): 0.43 | Rel −dox ([2]; 3 μM, sgGRK2-pooled): 0.47 | Difference between rel +dox and −dox signal ([2]; 3 μM, sgNTC): 0.12 | Rel +dox ([2]; 3 μM, sgNTC): 0.53 | Rel −dox ([2]; 3 μM, sgNTC): 0.65 | viability at 0.005 µM (PAXF1997; PAXF1997, dose 0.005 μM): 111% | viability at 0.014 µM (PAXF1997; PAXF1997, dose 0.014 μM): 111% | viability at 0.041 µM (PAXF1997; PAXF1997, dose 0.041 μM): 112% | viability at 0.123 µM (PAXF1997; PAXF1997, dose 0.123 μM): 114% | viability at 0.37 µM (PAXF1997; PAXF1997, dose 0.370 μM): 118% | viability at 1.111 µM (PAXF1997; PAXF1997, dose 1.111 μM): 110% | viability at 3.333 µM (PAXF1997; PAXF1997, dose 3.333 μM): 104% | viability at 10 µM (PAXF1997; PAXF1997, dose 10.000 μM): 83.7% | viability at 30 µM (PAXF1997; PAXF1997, dose 30.000 μM): 81.4%
